Where a name gives a salt, the structure may show the parent alone. Read-outs that look alike come from different tables or passages of the source.
Key:
Format in all cases: physicochemical
[1] = Solid form analysis of salt batches (XRPD, DSC, TGA, GVS); conditions: hydrochloride salt batches; hydrochloride
From the text: Initial studies into compound I involved analysis of the hydrochloride salt. It was found as summarised in Table 1 below, that the initially prepared hydrochloride salt produces an inconsistent solid form with significant variability in the DSC, TGA, GVS and XRPD pattern (see FIGS. 1 to 16).
The samples of both hydrochloride (comparative) and citrate salts were subjected to X-ray diffraction to determine the characteristic X-ray diffraction pattern. The conditions used were as follows: X-Ray Powder Diffraction patterns were collected on a Siemens D5000 diffractometer using Cu Kα radiation (40 kV, 40 mA), θ-θ goniometer, divergence of V20 and receiving slits, a graphite secondary monochromator and a scintillation counter. The instrument is performance checked using a certified Corundum standard (NIST 1976).
Samples run under ambient conditions were prepared as flat plate specimens using powder as received. Approximately 35 mg of the sample was gently packed into a cavity cut into polished, zero-background (510) silicon wafer. The sample was rotated in its own plane during analysis. The details of the data collection are: • Angular range: 2 to 42°2θ • Step size: 0.05°2θ • Collection time: 4 s·step^1.
Alternatively, X-Ray Powder Diffraction patterns were collected on a Bruker AXS C2 GADDS diffractometer using Cu Kα radiation (40 kV, 40 mA), automated XYZ stage, laser video microscope for auto-sample positioning and a HiStar 2-dimensional area detector. X-ray optics consists of a single Gabel multilayer mirror coupled with a pinhole collimator of 0.3 mm. The beam divergence, i.e. the effective size of the X-ray beam on the sample, was approximately 4 mm. A θ-θ continuous scan mode was employed with a sample-detector distance of 20 cm which gives an effective 2θ range of 3.2°-29.7°. Typically the sample would be exposed to the X-ray beam for 120 seconds.
Samples run under ambient conditions were prepared as flat plate specimens using powder as received without grinding. Approximately 1-2 mg of the sample was lightly pressed on a glass slide to obtain a flat surface.

[2] = Thermal gravimetric analysis (TGA)
Description: The samples of both hydrochloride (comparative) and citrate salts were subjected to thermal gravimetric analysis and differential scanning calorimetry under the following conditions. DSC data were collected on a TA Instruments Q2000 equipped with a 50 position auto-sampler. The instrument was calibrated for energy and temperature calibration using certified indium. Typically 0.5-3 mg of each sample, in a pin-holed aluminium pan, was heated at 10° C.·min^−1 from 25° C. to 270° C.
TGA data were collected on a TA Instruments Q500 TGA, equipped with a 16 position auto-sampler. The instrument was temperature calibrated using certified Alumel. Typically 5-30 mg of each sample was loaded onto a pre-tared platinum crucible and aluminium DSC pan, and was heated at 10° C.·min^−1 from ambient temperature to 300° C. A nitrogen purge at 60 ml·min^−1 was maintained over the sample. The instrument control software was Thermal Advantage v4.6.6 and the data were analysed using Universal Analysis v4.3A. Alternatively, TGA data were collected on a Mettler TGA/SDTA 851e equipped with a 34 position auto-sampler. The instrument was temperature calibrated using certified indium. Typically 5-30 mg to of each sample was loaded onto a pre-weighed aluminium crucible and was heated at 10° C.·min^−1 from ambient temperature to 300° C. A nitrogen purge at 50 ml·min^−1 was maintained over the sample. The instrument control and data analysis software was STARe v9.01.

[3] = Gravimetric Vapour Sorption (GVS) with post-GVS XRPD; conditions: for solid form / XRPD pattern post GVS compared with before: XRPD after GVS experiment; for solid form / XRPD pattern post GVS compared with before / GVS mass lost on going to dryness: hydrochloride; for GVS mass gain: from 40% RH to 90% RH; for GVS mass lost on going to dryness: from 90% RH to dryness
[4] = Stress tests at elevated temperature and humidity, analysed by XRPD
Description: The group three material was stressed under conditions which might cause it is to convert to group one material or, indeed, another hydrated or polymorphic form. Thus samples were stored at 40° C./75% RH and also at 60° C./96% RH and analysed at regular intervals by XRPD.
The stability of the citrate salt group A material was tested in harsher conditions, when the samples were kept for a week in a humidity chamber at 60° C. and 96% RH.

[5] = Maturation of citrate salt in 27 solvents, solids analysed by XRPD
Description: In order to determine the propensity of polymorphism for the citrate salt the group A material was maturated in 27 different solvents. A small amount of solid was slurried with the corresponding solvent (see Table 4 below) and stored in the incubator and subjected to 4 h-heat/cool cycles at 50° C./r.t. for 24 h. The solvents were then removed under vacuum, and the remaining solids analysed by XRPD.

Karl-Fischer analysis = assay: Karl-Fischer analysis

For C1=CCOCc2cc(ccc2OCCN2CCCC2)Nc2nccc(n2)-c2cccc(c2)COC1.Cl [Batch HCl 6, 11-(2-pyrrolidin-1-yl-ethoxy)-14,19-dioxa-5,7,26-triaza-tetracyclo[19.3.1.1(2,6).1(8,12)]heptacosa-1(25),2(26),3,5,8,10,12(27),16,21,23-decaene hydrochloride], the “Solid Form Comment” value [1] was “Group 3”, the “decomposition / degradation temperature in TGA” value ([2]; hydrochloride) was “around 240 °C” and the “TGA weight loss before degradation / melt with decomposition” value ([2]; result in words) was “very little weight loss”. The “solid form / XRPD pattern post GVS compared with before” value [3] was “unchanged”, the GVS mass gain [3] was 1.6% and the “GVS mass lost on going to dryness” value [3] was 2.4%.

In the case of C1=CCOCc2cc(ccc2OCCN2CCCC2)Nc2nccc(n2)-c2cccc(c2)COC1.Cl [Batch HCl 5, 11-(2-pyrrolidin-1-yl-ethoxy)-14,19-dioxa-5,7,26-triaza-tetracyclo[19.3.1.1(2,6).1(8,12)]heptacosa-1(25),2(26),3,5,8,10,12(27),16,21,23-decaene hydrochloride], the “Solid Form Comment” value [1] is reported as “Group 2”.

In the case of C1=CCOCc2cc(ccc2OCCN2CCCC2)Nc2nccc(n2)-c2cccc(c2)COC1.Cl [Batch HCl 2, 11-(2-pyrrolidin-1-yl-ethoxy)-14,19-dioxa-5,7,26-triaza-tetracyclo[19.3.1.1(2,6).1(8,12)]heptacosa-1(25),2(26),3,5,8,10,12(27),16,21,23-decaene hydrochloride], the “Solid Form Comment” value [1] is reported as “Predominately Group 1”, the “decomposition / degradation temperature in TGA” value [2] is reported as 260 °C and the “water lost in the first phase of the TGA” value ([2]; hydrochloride) is reported as 5.6%. The “equivalents of water corresponding to TGA weight loss” value (shortened to “equivalents … to TGA weight loss”) ([2]; hydrochloride) was 1.67 equivalents of water.

In the case of C1=C/COCc2cc(ccc2OCCN2CCCC2)Nc2nccc(n2)-c2cccc(c2)COC/1 [citrate salt group A material, 11-(2-pyrrolidin-1-yl-ethoxy)-14,19-dioxa-5,7,26-triaza-tetracyclo[19.3.1.1(2,6).1(8,12)]heptacosa-1(25),2(26),3,5,8,10,12(27),16,21,23-decaene], the “change of crystalline pattern (XRPD) after stress” value ([4]; one week in humidity chamber at 60° C. and 96% RH) is reported as “no changes are observed”, the “Solid Form after maturation” value ([5]; 1,4-dioxane) is reported as “Form A” and the “Solid Form after maturation” value ([5]; 1-butanol) is reported as “Form A”. The “Solid Form after maturation” value ([5]; 1-pentanol) was “Form A”, the “Solid Form after maturation” value ([5]; 1-propanol) was “Form A” and the “Solid Form after maturation” value ([5]; 2-butanol) was “Form A”. For the same compound, the “Solid Form after maturation” value ([5]; 2-methoxy ethanol) was “Form A”, the “Solid Form after maturation” value ([5]; 3-methyl-1-butanol) was “Form A” and the “solid forms identified after maturation” value ([5]; 27 different solvents, 4 h heat/cool cycles 50° C./r.t. for 24 h) was “only one solid form”. The “Solid Form after maturation” value ([5]; Acetonitrile) was “Form A”, the “Solid Form after maturation” value ([5]; Cyclohexane) was “Form A” and the “Solid Form after maturation” value ([5]; DMSO) was “Form A”. For the same compound, the “Solid Form after maturation” value ([5]; Dicloro-methane) was “Form A”, the “Solid Form after maturation” value ([5]; Ethanol) was “Form A” and the “Solid Form after maturation” value ([5]; Ethyl acetate) was “Form A”. For the same compound, the “Solid Form after maturation” value ([5]; Heptane) was “Form A”, the “Solid Form after maturation” value ([5]; IPA) was “Form A” and the “Solid Form after maturation” value ([5]; Isobutyl acetate) was “Form A”. For the same compound, the “Solid Form after maturation” value ([5]; Isopropyl acetate) was “Form A”, the “Solid Form after maturation” value ([5]; Methyl isobutyl ketone) was “Form A” and the “Solid Form after maturation” value ([5]; Methylethyl ketone) was “Form A”. For the same compound, the “Solid Form after maturation” value ([5]; Nitromethane) was “Form A”, the “Solid Form after maturation” value ([5]; Propyl acetate) was “Form A” and the “Solid Form after maturation” value ([5]; TBME) was “Form A”. The “Solid Form after maturation” value ([5]; Tetrahydro furan) was “Form A”, the “Solid Form after maturation” value ([5]; Toluene) was “Form A” and the “Solid Form after maturation” value ([5]; Water) was “Form A”. The “Solid Form after maturation” value ([5]; acetone) was “Form A” and the “Solid Form after maturation” value ([5]; methanol) was “Form A”.

In the case of C1=CCOCc2cc(ccc2OCCN2CCCC2)Nc2nccc(n2)-c2cccc(c2)COC1.Cl [group 3 hydrochloride, 11-(2-pyrrolidin-1-yl-ethoxy)-14,19-dioxa-5,7,26-triaza-tetracyclo[19.3.1.1(2,6).1(8,12)]heptacosa-1(25),2(26),3,5,8,10,12(27),16,21,23-decaene hydrochloride], the “solid form by XRPD after stress (Comment)” value (“solid form by XRPD” below) ([4]; 40° C./75% RH, 0 hrs) is reported as “Group three”, the “solid form by XRPD” value ([4]; 40° C./75% RH, 24 hrs) is reported as “Group three” and the “solid form by XRPD” value ([4]; 40° C./75% RH, 48 hrs) is reported as “Group three”. For the same compound, the “solid form by XRPD” value ([4]; 40° C./75% RH, 72 hrs) was “Group one”, the “solid form by XRPD” value ([4]; 60° C./96% RH, 0 hrs) was “Group three” and the “solid form by XRPD” value ([4]; 60° C./96% RH, 24 hrs) was “Group one”.

In the case of C1=CCOCc2cc(ccc2OCCN2CCCC2)Nc2nccc(n2)-c2cccc(c2)COC1.Cl [Batch HCl 3, 11-(2-pyrrolidin-1-yl-ethoxy)-14,19-dioxa-5,7,26-triaza-tetracyclo[19.3.1.1(2,6).1(8,12)]heptacosa-1(25),2(26),3,5,8,10,12(27),16,21,23-decaene hydrochloride], the “Solid Form Comment” value [1] is reported as “Group 1 + 3 + little amorphous”, the “decomposition / degradation temperature in TGA” value [2] is reported as 260 °C and the “total weight lost in the TGA” value [2] is reported as 3.4%. For the same compound, the “another loss in TGA” value ([2]; at 165° C.) was 1.97%, the “water lost in the first phase of the TGA” value ([2]; hydrochloride) was 1.5% and the “equivalents … to TGA weight loss” value ([2]; hydrochloride) was 0.5 equivalents of water. The “equivalents of water by Karl-Fischer analysis” value (Karl-Fischer analysis) was 1.1 equivalents and the “water content by Karl-Fischer analysis” value (Karl-Fischer analysis) was 3.79%.

In the case of C1=CCOCc2cc(ccc2OCCN2CCCC2)Nc2nccc(n2)-c2cccc(c2)COC1.Cl [Batch HCl 1, 11-(2-pyrrolidin-1-yl-ethoxy)-14,19-dioxa-5,7,26-triaza-tetracyclo[19.3.1.1(2,6).1(8,12)]heptacosa-1(25),2(26),3,5,8,10,12(27),16,21,23-decaene hydrochloride], the “Solid Form Comment” value [1] is reported as “Group 1 + 3 + amorphous”, the “equivalents … to TGA weight loss” value ([2]; hydrochloride) is reported as 1.4 equivalents of water and the “TGA two stage weight loss, total” value ([2]; up to 100° C.) is reported as 4.5%. The “GVS adsorption of water in the initial adsorption cycle” value ([3]; at 90% RH) was 5.5%, the “GVS mass lost on going to dryness” value [3] was 5% and the GVS mass regained ([3]; from dryness to 40% RH) was 2%. It also gave a GVS total gain ([3]; whole GVS cycle) of 2%.

With C1=CCOCc2cc(ccc2OCCN2CCCC2)Nc2nccc(n2)-c2cccc(c2)COC1.Cl [Batch HCl 4, 11-(2-pyrrolidin-1-yl-ethoxy)-14,19-dioxa-5,7,26-triaza-tetracyclo[19.3.1.1(2,6).1(8,12)]heptacosa-1(25),2(26),3,5,8,10,12(27),16,21,23-decaene hydrochloride] the “Solid Form Comment” value [1] was “Group 1”, the TGA mass loss ([2]; between ambient and 108° C.) was 6.5% and the “solid form / XRPD pattern post GVS compared with before” value [3] was “unchanged”. The GVS mass gain [3] was 1.6% and the “GVS mass lost on going to dryness” value [3] was 2.8%.
